The record followed here is patent publication EP3789378A1, “PIPERIDINES OR PIPERIDONES SUBSTITUTED WITH UREA AND HETEROARYL” (Grünenthal GmbH, priority 2019, dated 2021).

A word on the EC50: it is the concentration that produces a half-maximal response.

One assay concerns the target T1, h FPR2 (Homo sapiens, UniProt P25090).
T1 construct: expressed in transfected cells
T1 sequence (P25090 1-351): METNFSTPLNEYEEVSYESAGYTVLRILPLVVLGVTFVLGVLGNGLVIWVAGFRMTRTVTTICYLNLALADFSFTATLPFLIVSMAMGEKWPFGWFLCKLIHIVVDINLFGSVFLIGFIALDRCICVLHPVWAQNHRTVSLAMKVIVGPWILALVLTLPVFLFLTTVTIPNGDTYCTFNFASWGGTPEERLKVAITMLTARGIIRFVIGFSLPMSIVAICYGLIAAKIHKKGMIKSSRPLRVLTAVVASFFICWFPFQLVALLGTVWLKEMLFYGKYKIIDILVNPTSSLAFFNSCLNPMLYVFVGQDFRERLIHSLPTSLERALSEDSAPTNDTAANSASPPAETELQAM
The experiment in a line: Agonistic activity in hFPR2-Aq-CHO cells (FLIPR Calcium 5 fluorescence assay). To be noted: 11 point half log dilution, final assay concentration from 10µM. In kind it is cell-based. As for the experimental part: After washing, the cells are plated at 10,000 cells per well in 40 µL complete medium in a 384-well sterile clear bottom black plate and incubated in a 5% CO2 incubator at 37°C for 18 hours. Plating media is removed from each well by decanting and gentle tapping before 30 µL of 0.5X Calcium 5 dye solution (0.5X FLIPR Calcium 5 dye (Molecular devices, R8186)); HBSS; 20mM HEPES; 2.5mM Probenecid; 0.025% Pluronic F-127; pH adjusted to 7.4) is added to each well and the plate is then incubated at 37°C for 30 minutes. For the assay the plate is equilibrated at room temperature for 10 minutes before placing it in the FLIPR. Compounds are dissolved in DMSO and serially diluted over an 11 point half log (3.16 fold) dilution (2 mM to 20 nM). Compounds are then diluted 1:50 in assay buffer (HBSS; 20mM HEPES; 2.5mM Probenecid; 0.05% gelatin; 0.1% BSA; pH adjusted to 7.4) just before performing the assay. Compounds are finally added to the respective wells of the cell plate (final assay concentration 10 µM to 100 pM) using the FLIPR (e.g. FLIPR-Tetra, Molecular Devices) and fluorescence readings are captured for 5 minutes. The increase in fluorescence from the basal reading in the presence of the compounds is compared with that of the control wells (wells having no compound) to calculate the activity of the compounds. The EC50 values of the compounds can be determined using e.g. Graph pad Prism software.
Assay method for measuring agonistic activity of compounds in hFPR2-Aq-CHO cell
Cryo-vial containing 6x10^6 cells (hFPR1-Gα15-CHO or hFPR2-Aq-CHO) was thawed in a 37°C water bath. Cells were suspended in 10ml of respective complete growth media (F12(1X)HAM media (Gibco; Cat#11765); 10% HI-FBS (Gibco; Cat#10082); 0.4 mg/ml Geneticin (Gibco; Cat#10131); 0.25 mg/ml Zeocin (Invitrogen; Cat#R25001)) in a 15ml centrifuge tube. The cell viability was checked with the help of Trypan Blue dye. Upon washing the cells, those were plated in a 384-well sterile clear bottom black plate (Greiner Bioone Cat# 781091) so that, each well contained 10,000 cells in 40µl complete growth media. The plate was incubated in a 5% CO2 incubator at 37°C for 18 hours. Before assay on the next day, the cell plating media was removed from each well of the plate by decanting and gentle tapping. 30µl of 0.5X Calcium 5 dye solution (0.5X FLIPR Calcium 5 dye (Molecular devices Cat# R8186); HBSS (Invitrogen; Cat#14025); 20mM HEPES (Sigma; Cat#H0887); 2.5mM Probenecid (Sigma; Cat#P8761); 0.025% Pluronic F-127 (Sigma; Cat#P2443); pH adjusted to 7.4) was added to each well. The plate was then incubated at 37°C for 30 minutes. Following which the plate was equilibrated at room temperature for 10 minutes before placing it in a 384 well FLIPR for assay. Compounds were dissolved in DMSO and serially diluted following 11 point half log (3.16 fold) dilution with a starting concentration of 2mM (Final assay concentration 10µM). Aliquots of above mentioned each dilution was mixed with assay buffer (HBSS (Invitrogen; Cat#14025); 20mM HEPES (Sigma; Cat#H0887); 2.5mM Probenecid (Sigma; Cat#P8761); 0.05% gelatin (Sigma; Cat#G1890); 0.1% BSA (Sigma; Cat#A3059); pH adjusted to 7.4) just before performing the assay. Compounds were added to the respective wells of the assay ready cell plate with the help of the FLIPR (FLIPR Tetra) and fluorescence readings were captured for 5 minutes to measure any agonistic response of the compounds. The increase in fluorescence readings from the basal reading in presence of the compounds were compared with that of the control wells (wells having no compound) to calculate the agonistic activity of the compounds. The EC50 values of the compounds were determined using the Graph pad Prism software.
Regarding `Cc1cc(NC(=O)N[C@@H]2CCN(c3ccncn3)C[C@H]2c2ccc(Cl)cn2)sn1` (relative stereo) [Ex-13, trans-1-(5-chloro-1'-pyrimidin-4-yl-1',2',3',4',5',6'-hexahydro-[2,3']bipyridinyl-4'-yl)-3-(3-methyl-isothiazol-5-yl)-urea], the EC50 worked out at 2 nM.
On the same count and under the same terms, the figure for `COc1ccc([C@@H]2CN(CC(C)(C)O)CC[C@H]2NC(=O)Nc2ccc(Cl)cc2)nc1` (relative stereo) [Ex-120, trans-1-(4-Chlorophenyl)-3-[1-(2-hydroxy-2-methyl-propyl)-3-(5-methoxy-pyridin-2-yl)-piperidin-4-yl]-urea] is 0.7 nM.
On to `COCCCN1CC[C@@H](NC(=O)Nc2ccccc2)[C@H](c2ccc(OC)cn2)C1` (relative stereo) [Ex-158, trans-1-[1-(3-Methoxy-propyl)-3-(5-methoxy-pyridin-2-yl)-piperidin-4-yl]-3-phenyl-urea], for which the EC50 is 31 nM.
For `COc1ccc([C@@H]2CN(CC(F)F)CC[C@H]2NC(=O)Nc2ccc(Cl)cc2)nc1` (single isomer, unassigned) [Ex-36, trans-1-(4-chlorophenyl)-3-[1-(2,2-difluoroethyl)-3-(5-methoxypyridin-2-yl)piperidin-4-yl]urea], the EC50 was found to be 85 nM.
For `COc1ccc([C@@H]2CN(CC3(O)COC3)CC[C@H]2NC(=O)Nc2ccc(Cl)cc2)nc1` (relative stereo) [Ex-194, trans-1-(4-chloro-phenyl)-3-[1'-(3-hydroxy-oxetan-3-ylmethyl)-5-methoxy-1',2',3',4',5',6'-hexahydro-[2,3']bipyridinyl-4'-yl]-urea], the EC50 worked out at 1.3 nM.
On to `COc1ccc([C@@H]2CN(c3cnccn3)CC[C@H]2NC(=O)Nc2ccc(Cl)cc2)nc1` (relative stereo) [Ex-226, trans-1-(4-chloro-phenyl)-3-(5-methoxy-1'-pyrazin-2-yl-1',2',3',4',5',6'-hexahydro-[2,3']bipyridinyl-4'-yl)-urea], for which the EC50 came to 0.9 nM.
On the same count and under the same terms, the figure for `COc1ccc([C@@H]2CN(CC3CCNCC3)CC[C@H]2NC(=O)Nc2ccc(Cl)cc2)nc1` (single isomer, unassigned) [Ex-82, trans-1-(4-chlorophenyl)-3-(3-(5-methoxypyridin-2-yl)-1-(piperidin-4-ylmethyl)piperidin-4-yl)urea] is 37 nM.
Same read-out and setting: the figure for `Cc1cnc(N2CC[C@@H](NC(=O)Nc3cc(C)ns3)[C@H](c3ccc(Cl)cn3)C2)cn1` (relative stereo) [Ex-41, trans-1-[5-chloro-1'-(5-methyl-pyrazin-2-yl)-1',2',3',4',5',6'-hexahydro-[2,3']bipyridinyl-4'-yl]-3-(3-methyl-isothiazol-5-yl)-urea] is 3 nM; for `COc1cnc([C@@H]2CN(CCCN(C)C)CC[C@H]2NC(=O)Nc2ccc(Cl)cc2)c(F)c1` (relative stereo) [Ex-212, trans-1-(4-chloro-phenyl)-3-[1'-(3-dimethylamino-propyl)-3-fluoro-5-methoxy-1',2',3',4',5',6'-hexahydro-[2,3']bipyridinyl-4'-yl]-urea] it is 0.3 nM; for `COc1ccc([C@@H]2CN(CC3CC(OC)C3)CC[C@H]2NC(=O)Nc2ccc(Cl)cc2)nc1` (single isomer, unassigned) [Ex-195, trans-1-(4-chloro-phenyl)-3-[5-methoxy-1'-(3-methoxy-cyclobutylmethyl)-1',2',3',4',5',6'-hexahydro-[2,3']bipyridinyl-4'-yl]-urea] it is 0.5 nM.

The same assay, now with this note: agonistic response at 0.1µM.
In the case of `COc1ccc([C@@H]2CN(CC3CC3)CC[C@H]2NC(=O)Nc2ccc(Cl)cc2)nc1` (relative stereo) [Ex-173, trans-1-(4-Chlorophenyl)-3-[1-(cyclopropyl-methyl)-3-(5-methoxy-pyridin-2-yl)-piperidin-4-yl]-urea], the activation at 0.1 µM is 44%.
For `COc1ccc([C@@H]2CN(CC(C)(C)O)CC[C@H]2NC(=O)Nc2ccc(Cl)cc2)nc1` (relative stereo) [Ex-178, trans-1-(4-Chlorophenyl)-3-[1-(2-hydroxy-2-methyl-propyl)-3-(5-methoxy-pyridin-2-yl)-piperidin-4-yl]-urea], the activation at 0.1 µM worked out at 0.2%.
